Measurements as given in paper PMC10733307, “Dual species sphingosine-1-phosphate lyase inhibitors to combine antifungal and anti-inflammatory activities in cystic fibrosis: a feasibility study” (Scientific Reports, 2023).

Assays:
[1] = target: T1, AfuSPL (Aspergillus fumigatus, UniProt Q4WPU3); experiment: fluorimetric lyase assay; type: biochemical; conditions: 1 mM inhibitor, fluorogenic S1P substrate, pH 7.4, 37 °C
T1 construct: gene AFUA_4G10470; cytosolic catalytic domain, Δ1-81, C-terminal His tag, pET28, E. coli BL21 with GroEL/GroES (pGro7), about 50 kDa subunit, dimer
T1 sequence (Q4WPU3 82-572): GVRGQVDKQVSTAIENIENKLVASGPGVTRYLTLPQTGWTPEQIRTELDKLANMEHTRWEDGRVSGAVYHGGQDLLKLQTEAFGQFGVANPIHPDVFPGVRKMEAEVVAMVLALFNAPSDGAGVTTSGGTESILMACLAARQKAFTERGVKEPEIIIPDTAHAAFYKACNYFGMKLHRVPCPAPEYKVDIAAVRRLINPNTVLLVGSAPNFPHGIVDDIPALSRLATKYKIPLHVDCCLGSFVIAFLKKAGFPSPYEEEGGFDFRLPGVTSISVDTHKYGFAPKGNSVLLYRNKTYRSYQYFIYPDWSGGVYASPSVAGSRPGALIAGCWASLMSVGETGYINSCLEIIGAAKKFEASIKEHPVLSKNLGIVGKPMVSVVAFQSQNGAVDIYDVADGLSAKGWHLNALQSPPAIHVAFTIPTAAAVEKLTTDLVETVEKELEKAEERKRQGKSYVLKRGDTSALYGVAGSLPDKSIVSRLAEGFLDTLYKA

[2] = target: T2, hSPL (Homo sapiens, UniProt O95470); experiment: fluorimetric lyase assay, global fit to competitive inhibition model; type: biochemical
T2 construct: gene SGPL1
T2 sequence (O95470 81-568): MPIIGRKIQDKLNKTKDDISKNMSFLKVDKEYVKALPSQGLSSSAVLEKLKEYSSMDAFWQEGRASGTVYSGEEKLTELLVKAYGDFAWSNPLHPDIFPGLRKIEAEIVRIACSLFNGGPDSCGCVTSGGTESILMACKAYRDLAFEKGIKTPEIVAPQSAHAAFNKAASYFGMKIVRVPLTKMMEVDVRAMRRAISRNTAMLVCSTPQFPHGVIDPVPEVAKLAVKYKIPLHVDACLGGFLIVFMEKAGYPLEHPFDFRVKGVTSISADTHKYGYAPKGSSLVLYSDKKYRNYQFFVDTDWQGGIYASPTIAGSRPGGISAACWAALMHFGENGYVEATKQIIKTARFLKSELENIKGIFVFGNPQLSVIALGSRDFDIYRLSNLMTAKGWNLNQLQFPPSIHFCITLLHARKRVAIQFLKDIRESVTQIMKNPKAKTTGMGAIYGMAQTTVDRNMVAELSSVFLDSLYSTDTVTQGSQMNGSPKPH
From the text: fluorimetric lyase assay, global fit to competitive inhibition model on hSPL | From a global fitting of the data we estimated their KI values

[3] = target: T1, AfuSPL; experiment: as above; type: biochemical
From the text: fluorimetric lyase assay, global fit to competitive inhibition model on AfuSPL | From a global fitting of the data we estimated their KI values

[4] = system: N[C@@H](COP(=O)(O)O)[C@H](O)CCOc1ccc2ccc(=O)oc2c1; experiment: purified protein; conditions: 100 mM Hepes pH 7.4, 0.1 mM EDTA, 0.05% Triton X-100, 100 μM PLP, 37 °C

C[C@@H]1CN(c2nnc(Cc3ccccc3)c3ccc(Cl)cc23)CCN1c1ccc(C#N)cn1 [30J, 6-[(2R)-4-(4-benzyl-7-chlorophthalazin-1-yl)-2-methylpiperazin-1-yl]pyridine-3-carbonitrile]
% inhibition at 1 mM [1]: without any significant effect on the activity of AfuSPL

CCCOC(=O)c1c(NC(=O)CCCC(=O)Nc2sc3c(c2C(=O)OCCC)CCCCC3)sc2c1CCCCC2 [C17]
Ki [2]: 240 ± 50 µM | Ki [3]: 270 ± 80 µM

AfuSPL (Aspergillus fumigatus Af293)
Km [4]: 3.1 ± 0.4 mM | kcat [4]: 0.103 ± 0.007 s⁻¹
